Source: ChEMBL document CHEMBL2440076, “New triarylpyrazoles as broad-spectrum anticancer agents: design, synthesis, and biological evaluation” (Eur J Med Chem, 2013)
pIC50: −log10 of the molar value.

Experiments:
[1] = tested on: MDA-MB-468; assay: Growth inhibition of human MDA-MB-468 cells assessed as cell growth at 10 uM after 48 hrs by sulforhodamine B assay; type: functional; details: MDA-MB-468, 48 h, read-out: Activity
[2] = tested on: UO-31; assay: Growth inhibition of human UO31 cells assessed as cell growth at 10 uM after 48 hrs by sulforhodamine B assay; type: functional; details: UO-31, 48 h, read-out: Activity
[3] = tested on: PC-3; assay: Growth inhibition of human PC3 cells assessed as cell growth at 10 uM after 48 hrs by sulforhodamine B assay; type: functional; details: PC-3, 48 h, read-out: Activity
[4] = tested on: HCT-15; assay: Growth inhibition of human HCT15 cells after 48 hrs by sulforhodamine B assay; type: functional; details: HCT-15, 48 h
[5] = tested on: NCI-H522; assay: Growth inhibition of human NCI-H522 cells after 48 hrs by sulforhodamine B assay; type: functional; details: NCI-H522, 48 h
[6] = tested on: COLO 205; assay: Growth inhibition of human COLO205 cells after 48 hrs by sulforhodamine B assay; type: functional; details: COLO 205, 48 h
[7] = tested on: NCI-H460; assay: Growth inhibition of human NCI-H460 cells after 48 hrs by sulforhodamine B assay; type: functional; details: NCI-H460, 48 h
[8] = tested on: HOP-62; assay: Growth inhibition of human HOP62 cells after 48 hrs by sulforhodamine B assay; type: functional; details: HOP-62, 48 h
[9] = tested on: HOP-92; assay: Growth inhibition of human HOP92 cells after 48 hrs by sulforhodamine B assay; type: functional, cell-based; details: HOP-92, 48 h
[10] = tested on: K562; assay: Growth inhibition of human K562 cells after 48 hrs by sulforhodamine B assay; type: functional; details: K562, 48 h
[11] = tested on: HL-60(TB); assay: Growth inhibition of human HL-60(TB) cells after 48 hrs by sulforhodamine B assay; type: functional; details: HL-60, 48 h
[12] = tested on: OVCAR-5; assay: Growth inhibition of human OVCAR5 cells assessed as cell growth at 10 uM after 48 hrs by sulforhodamine B assay; type: functional; details: OVCAR-5, 48 h, read-out: Activity
[13] = tested on: OVCAR-8; assay: Growth inhibition of human OVCAR8 cells assessed as cell growth at 10 uM after 48 hrs by sulforhodamine B assay; type: functional; details: OVCAR-8, 48 h, read-out: Activity
[14] = tested on: OVCAR-3; assay: Growth inhibition of human OVCAR3 cells assessed as cell growth at 10 uM after 48 hrs by sulforhodamine B assay; type: functional; details: OVCAR-3, 48 h, read-out: Activity
[15] = tested on: SK-MEL-2; assay: Growth inhibition of human SK-MEL-2 cells assessed as cell growth at 10 uM after 48 hrs by sulforhodamine B assay; type: functional; details: SK-MEL-2, 48 h, read-out: Activity
[16] = tested on: M14; assay: Growth inhibition of human M14 cells assessed as cell growth at 10 uM after 48 hrs by sulforhodamine B assay; type: functional; details: M14, 48 h, read-out: Activity
[17] = tested on: SW-620; assay: Growth inhibition of human SW620 cells assessed as cell growth at 10 uM after 48 hrs by sulforhodamine B assay; type: functional; details: SW-620, 48 h, read-out: Activity
[18] = tested on: HT-29; assay: Growth inhibition of human HT-29 cells assessed as cell growth at 10 uM after 48 hrs by sulforhodamine B assay; type: functional; details: HT-29, 48 h, read-out: Activity
[19] = tested on: KM12; assay: Growth inhibition of human KM12 cells assessed as cell growth at 10 uM after 48 hrs by sulforhodamine B assay; type: functional; details: KM12, 48 h, read-out: Activity
[20] = tested on: HCT-15; assay: Growth inhibition of human HCT15 cells assessed as cell growth at 10 uM after 48 hrs by sulforhodamine B assay; type: functional; details: HCT-15, 48 h, read-out: Activity
[21] = tested on: NCI-H522; assay: Growth inhibition of human NCI-H522 cells assessed as cell growth at 10 uM after 48 hrs by sulforhodamine B assay; type: functional; details: NCI-H522, 48 h, read-out: Activity
[22] = tested on: NCI-H23; assay: Growth inhibition of human NCI-H23 cells assessed as cell growth at 10 uM after 48 hrs by sulforhodamine B assay; type: functional; details: NCI-H23, 48 h, read-out: Activity
[23] = tested on: BT-549; assay: Growth inhibition of human BT549 cells after 48 hrs by sulforhodamine B assay; type: functional; details: BT-549, 48 h
[24] = tested on: T47D; assay: Growth inhibition of human T47D cells after 48 hrs by sulforhodamine B assay; type: functional
[25] = tested on: DU-145; assay: Growth inhibition of human DU145 cells after 48 hrs by sulforhodamine B assay; type: functional; details: DU-145, 48 h
[26] = tested on: CAKI-1; assay: Growth inhibition of human CAKI-1 cells after 48 hrs by sulforhodamine B assay; type: functional; details: CAKI-1, 48 h
[27] = tested on: 786-0; assay: Growth inhibition of human 786-0 cells after 48 hrs by sulforhodamine B assay; type: functional; details: 786-0, 48 h
[28] = tested on: SK-OV-3; assay: Growth inhibition of human SKOV3 cells after 48 hrs by sulforhodamine B assay; type: functional; details: SK-OV-3, 48 h
[29] = tested on: OVCAR-8; assay: Growth inhibition of human OVCAR8 cells after 48 hrs by sulforhodamine B assay; type: functional; details: OVCAR-8, 48 h
[30] = tested on: SK-MEL-28; assay: Growth inhibition of human SK-MEL-28 cells after 48 hrs by sulforhodamine B assay; type: functional; details: SK-MEL-28, 48 h
[31] = tested on: LOX IMVI; assay: Growth inhibition of human LOXIMVI cells after 48 hrs by sulforhodamine B assay; type: functional
[32] = tested on: SF-539; assay: Growth inhibition of human SF539 cells after 48 hrs by sulforhodamine B assay; type: functional; details: SF-539, 48 h
[33] = tested on: RPMI-8226; assay: Growth inhibition of human RPMI8226 cells assessed as cell growth at 10 uM after 48 hrs by sulforhodamine B assay; type: functional; details: RPMI-8226, 48 h, read-out: Activity
[34] = tested on: MOLT-4; assay: Growth inhibition of human MOLT4 cells assessed as cell growth at 10 uM after 48 hrs by sulforhodamine B assay; type: functional; details: MOLT-4, 48 h, read-out: Activity
[35] = read-out: LC50 (the source's name)

In the case of `COc1cc(-c2nn(-c3cccc(NC(=O)Nc4cc(C(F)(F)F)cc(C(F)(F)F)c4)c3)cc2-c2ccncc2)ccc1Cl`, the growth at 10 µM [1] was -25.4%, the growth at 10 µM [2] was -29.2% and the growth at 10 µM [3] was -55.2%. It also gave a GI50 [4] of 0.617 µM, an LC50 [4] of 4.33 µM and a TGI [4] of 1.64 µM. The GI50 [5] was 0.623 µM, the LC50 (concentration killing 50% of cells) [5] was 6.56 µM and the TGI [5] was 1.8 µM. It also gave a GI50 [6] of 0.847 µM, an LC50 (concentration killing 50% of cells) [6] of 2.91 µM and a TGI [6] of 1.57 µM. It also gave a GI50 [7] of 0.558 µM, an LC50 [7] of 16.3 µM and a TGI [7] of 1.87 µM. For the same compound, the GI50 [8] was 0.855 µM, the TGI [8] was 1.59 µM and the CC50 [8, 35] was 2.95 µM. It also gave a GI50 [9] of 0.144 µM, a pIC50 [9] of 6.85 and an LC50 [9] of 4.72 µM. It also gave a TGI [9] of 1.15 µM, a GI50 [10] of 0.363 µM and a TGI [10] of 3.25 µM. For the same compound, the CC50 [10, 35] was over 50 µM, the GI50 [11] was 1.18 µM and the TGI [11] was over 50 µM. It also gave a CC50 [11, 35] of over 50 µM, a growth at 10 µM [12] of 16.3% and a growth at 10 µM [13] of -12.7%. The growth at 10 µM [14] was -57.9%, the growth at 10 µM [15] was -52.1% and the growth at 10 µM [16] was -42.1%. The growth at 10 µM [17] was -2.89%, the growth at 10 µM [18] was -41.2% and the growth at 10 µM [19] was -14.8%. The growth at 10 µM [20] was 2.59%, the growth at 10 µM [21] was -34.4% and the growth at 10 µM [22] was -3.3%. For the same compound, the GI50 [23] was 1.21 µM, the LC50 (50% lethal concentration) [23] was 29.6 µM and the TGI [23] was 3.06 µM. For the same compound, the GI50 [24] was 1.55 µM, the TGI [24] was over 50 µM and the CC50 [24, 35] was over 50 µM. For the same compound, the GI50 [25] was 1.31 µM, the LC50 [25] was 21.1 µM and the TGI [25] was 5.04 µM. It also gave a GI50 [26] of 0.993 µM, a TGI [26] of 3.14 µM and a CC50 [26, 35] of 49.3 µM. For the same compound, the GI50 [27] was 0.95 µM, the TGI [27] was 2.02 µM and the CC50 [27, 35] was 4.31 µM. It also gave a GI50 [28] of 1.09 µM, a TGI [28] of 2.57 µM and a CC50 [28, 35] of 15.4 µM. For the same compound, the GI50 [29] was 0.524 µM, the TGI [29] was 3.98 µM and the CC50 [29, 35] was over 50 µM. The GI50 [30] was 0.851 µM, the LC50 [30] was 3.38 µM and the TGI [30] was 1.7 µM. The GI50 [31] was 0.783 µM, the LC50 [31] was 2.94 µM and the TGI [31] was 1.52 µM. The GI50 [32] was 0.829 µM, the LC50 (concentration killing 50% of cells) [32] was 3.54 µM and the TGI [32] was 1.71 µM. The growth at 10 µM [33] was -11.7% and the growth at 10 µM [34] was -24.5%.
